Test results taken from US8455523B2, “Compositions and methods for treating hyperlipidemias” (The Research Foundation of State University of New York, priority 2010, dated 2013).

Key:
[1] = system: hyperlipidemic bonnet macaques; test: MTP inhibitor with or without pioglitazone or lovastatin in western diet fed bonnet macaques; format: in vivo, bonnet macaque monkeys; settings: for plasma cholesterol: then MTP inhibitor one month ± Pioglitazone or Lovastatin; for Hepatic cholesterol, total and free: biopsies
Experimental: FIG. 14. Bonnet Macaque monkeys fed ad libitum WD diet for 40 days and were administered MTPi, Lovastatin, (Lovas) or Pioglitazone (Pio) everyday for one month. A-D* represent comparisons to the MTPi alone group. E-I* represent comparisons between baseline and post biopsies.
Eleven (11) Male bonnet macaque monkeys were fed western diet for 40 days and treated with MTP inhibitor (BMS 2122122-01) with or without either Pioglitazone or Lovastatin for one month. Plasma samples were obtained at Day 0, 20, 40, 47, 54, 61 and 68 days. Liver biopsies were obtained on Day 40 and Day 68. Biopsies were conducted over two days; 2 animals from each group were biopsied per day.
In order to ascertain if the effects seen were a species-specific effect, we studied the treatment of MTP inhibitors either alone or in conjunction with Pioglitazone or Lovastatin in hyperlipidemic bonnet macaques. These animals were fed ad libitum with a WD for 40 days and then subsequently treated with MTP inhibitors for one month. […] These studies indicate that western diet increases plasma cholesterol and that these increases can be abrogated by treatment with an MTP inhibitor.

[2] = system: Reversa mice; settings: for plasma cholesterol / plasma triglycerides: MTP deficient (plpC) Reversa mice, oral 30 days
Experimental: FIG. 11. Reversa animals were injected with plpC every other day for one week. Lovastatin, T-090317 and WY14643 were administered by oral gavage everyday for 30 days after the first injection. Animals were sacrificed on day 30 and plasma and livers were harvested and analyzed. * represent comparison to PBS injected animals and # represent comparisons to plpC control.
Animals: Mttp^tm2Sgy LdIr^tm1Her Apob^tm2Sgy Tg(Mx1-cre)1Cgn/J mice (Reversa) (stock number 004192) were obtained from Jackson Laboratories. Male reversa mice were used to study the effect of mttp gene deletion on plasma and tissue lipids. These animals are transgenic for apolipoprotein B, LDLR^−/− and floxed at exon 1 of the mttp locus. In addition, these mice express cre recombinase under the control of the Mx1 promoter, which is induced after intraperitoneal injection of polyinosinic polycytidylic ribonucleic acid (plpC—Sigma) in the liver, spleen and intestine. Injection of plpC activates the cre recombinase and deletes the mttp gene in the liver and intestines. Reversa mice were injected with either PBS or plpC. Mice injected with plpC were orally gavaged with DMSO (Sigma-Aldrich D8418), DMSO+Lovastatin (50 mg/kg/day) (Calbiochem 438186), DMSO+T0901317 (50 mg/kg/day) (Calbiochem 575310), or DMSO+WY14643 (10 mg/kg/day) (Calbiochem 681725). Mice injected with plpC were also injected with either PBS or Ω-3 fatty acids (SUNY Downstate Medical Center). All animals were given supplemental treatments for 30 days.
All animals were kept in 07:00-19:00 h lighting schedule. […] Food was withdrawn 16 h before the sacrifice of the mice. On the day of the experiment, mice were anesthetized and blood was collected from the heart. Liver was collected, washed in ice-cold PBS, cut into small pieces and used for lipid extraction, histological staining, to measure different protein activities/quantities and for mRNA analysis. Lipids were extracted from the tissue homogenates following the Bligh and Dyer method. Triglyceride (Infinity TM Triglyceride, TR22421) and total cholesterol (Infinity TM Cholesterol, TR13421) levels in the tissues were determined using commercial kits (Thermo Scientific). Free cholesterol and free fatty acid levels were measured using kits from Wako Chemicals (Germany). Esterified cholesterol was calculated by subtracting the free cholesterol from the total cholesterol.
To determine whether accumulation of hepatic triglyceride and free cholesterol is related to increases in plasma AST/ALT, we sought to reduce these lipids using different chemical compounds of known physiologic effects. Mice injected with plpC were orally gavaged with DMSO, DMSO+Lovastatin (50 mg/kg/day), DMSO+T0901317 (50 mg/kg/day), or DMSO+WY14643 (10 mg/kg/day). Lovastatin (Lova), an HMG-CoA reductase (HMGR) inhibitor, and T0901317 (T0), an LXR agonist, are expected to decrease hepatic free cholesterol by inhibiting endogenous cholesterol synthesis and increasing cholesterol efflux, respectively. WY14643 (WY), a PPARα agonist, increases β-oxidation of fatty acids and lowers hepatic triglycerides.
To evaluate the efficacy of Ω-3 FA in reducing hepatic triglyceride, plpC injected mice were treated with intraperitoneal injection of Ω-3 FA (3 mg/kg/2 day) or Ω-3 FA and Lova.

[3] = plpC-injected Reversa mice, Lova 50, T0 50, WY 10 mg/kg/day oral or Ω-3 FA 3 mg/kg/2 day ip, vs plpC control

Row | Compound | plasma cholesterol ([1]; WD 40 days) | plasma AST/ALT levels vs baseline and day 40 ([1]; WD 40 days, then treatment one month) | Hepatic cholesterol, total and free ([1]; co-drugs with MTP inhibitor) | Hepatic triglycerides (biopsies day 40 vs day 68) ([1]; co-drugs with MTP inhibitor) | plasma cholesterol [2] | plasma triglycerides [2] | hepatic free and total cholesterol [2, 3] | hepatic triglyceride [2, 3]
1 | CCc1ccc(CCOc2ccc(CC3SC(=O)NC3=O)cc2)nc1 (racemic) [pioglitazone, (RS)-5-(4-[2-(5-ethylpyridin-2-yl)ethoxy]benzyl)thiazolidine-2,4-dione] | no further significant effect | did not show elevated | suppressed | no significant difference |  |  |  | 
2 | Cc1cccc(Nc2cc(Cl)nc(SCC(=O)O)n2)c1C [WY14643] |  |  |  |  | no effect | no effect | no effect | 
3 | CC[C@H](C)C(=O)O[C@H]1C[C@@H](C)C=C2C=C[C@H](C)[C@H](CC[C@@H]3C[C@@H](O)CC(=O)O3)[C@H]21 [lovastatin] | no further significant effect |  | suppressed |  | significantly reduced | no effect | significantly reduced | no effect
